Laboratory results as given in PMC9674596, “Origin of acetylcholine antagonism in ELIC, a bacterial pentameric ligand-gated ion channel” (Communications Biology, 2022).
Entries after “also recorded” stand apart in the source; their conditions may differ.

Experiments:
wild-type ELIC [1] = target: T1, wild-type ELIC (Dickeya chrysanthemi, UniProt P0C7B7, INS163G); settings: cited from earlier work
T1 construct: expressed in transfected cells; host or cells: Xenopus laevis oocytes injected with cRNA from ELIC-pTLN

ELIC A75D/F133W = target: T2, ELIC A75D/F133W (Dickeya chrysanthemi, UniProt P0C7B7, A75D/F133W/INS163G); assay: Two-electrode voltage clamp, A75D/F133W double mutant ELIC expressed in Xenopus laevis oocytes; assay type: cell-based, Erwinia chrysanthemi; settings: for Activation by amine (whole-cell response): 25 mM amine; for Activation by amine (whole-cell response) / Effect of co-applied ligand on cysteamine-activated current: cysteamine at its EC50; for Effect of co-applied ligand on cysteamine-activated current: 25 mM ligand, 40 s pulse; for Potentiation of the cysteamine response on co-application: 50 mM co-applied in the middle of a cysteamine pulse at EC50 (6.9 mM); for Response when applied by themselves: 50 mM applied for 40 s without cysteamine
T2 construct: expressed in transfected cells; host or cells: Xenopus laevis oocytes injected with cRNA; DNA construct synthesised by Twist Bioscience
Method: (§1) Stage V-VI Xenopus laevis oocytes were isolated[72] and deflocculated enzymatically in ND96 buffer without Ca^2+ (96 mM NaCl, 2 mM KCl, 1 mM MgCl2, 2 mM pyruvate, 5 mM HEPES, pH 7.4), but supplemented with 1 mg/mL collagenase B and 1 mg/mL trypsin inhibitor, for 2 h at room temperature under constant stirring. The deflocculation buffer was then gradually removed by washing the oocytes in ND96 buffer (96 mM NaCl, 2 mM KCl, 1 mM MgCl2, 1 mM CaCl2, 2 mM pyruvate, 5 mM HEPES, pH 7.4) for several iterations. The oocytes were then allowed to stir for an additional hour at room temperature under constant stirring with the buffer being periodically replaced until clear. To obtain optimal receptor expression, individually selected and healthy oocytes were injected with 0.2 ng cRNA for wild-type ELIC and 5 ng cRNA for mutants. Subsequently, oocytes were incubated for one day at 16 °C in ND96^+ buffer (96 mM NaCl, 2 mM KCl, 1 mM MgCl2, 1 mM CaCl2, 2 mM pyruvate, and 5 mM HEPES at pH 7.6). After expression, injected oocytes were placed in a RC-1Z oocyte chamber (Harvard Apparatus; Hamden, CT) containing buffer (pH 7.4) composed of 150 mM NaCl, 0.5 mM BaCl2, 10 mM HEPES, and 1 mM dithiothreitol or 1 µM atropine if cysteamine, or ACh, was used in the experiment, respectively. The presence of the reducing agent, dithiothreitol, ensures that the sulfhydryl group of cysteamine remains reduced.
(§2) Once in the oocyte chamber, whole-cell currents were recorded using a two-electrode voltage-clamp apparatus (OC-725C oocyte clamp; Harvard Apparatus), with a buffer flow rate of 5–10 mL min^−1. Currents in response to various additions of cysteamine and/or ACh, were measured with the transmembrane voltage clamped at −60 mV. Dose response curves for each wild-type and mutant ELIC were acquired from at least five oocytes in two different batches.
(§3) For identifying the half maximal effective concentration (EC50) and apparent Hill coefficient (nH) of cysteamine, dose response curves were created by taking the magnitude of each cysteamine-activated peak current (I) and normalizing this value to the maximal peak current in the presence of excess agonist (Imax). The log (base 10) cysteamine concentration in molar was then plotted on the x-axis against the fractional response (I/Imax) on the y-axis. The data was fitted using nonlinear regression with a variable slope sigmoidal dose response (Eq. 1, below) in GraphPad Prism (v.8.0.0).1 y=1/1+10^nH^LogEC50−X
(§4) Individual EC50 and Hill coefficients were averaged for each oocyte to derive a mean ± standard deviation. For identifying a half maximal inhibitory concentration (IC50) and Hill coefficient of ACh, a concentration of cysteamine corresponding to its EC50 was used in the presence of increasing concentrations of ACh. Peak currents elicited from cysteamine with ACh (I) were normalized to the initial cysteamine peak current in the absence of ACh (Io). The log (base 10) ACh concentration was then plotted on the x-axis against the fractional response (I/Io) on the y-axis. Subsequent steps were the same as above for deriving a cysteamine EC50 and Hill coefficient. The individual IC50 and Hill coefficients were averaged for each oocyte to derive a mean ± one standard deviation. Lastly, to identify four normalized response values, cysteamine at the 10% maximal effective concentration (EC10), 20% maximal effective concentration (EC20), EC50 and 90% maximal effective concentration (EC90), was applied in the presence and absence of 25 mM ACh. The cysteamine-activated peak current with 25 mM ACh, was normalized to the cysteamine-activated peak current without ACh.

wild-type ELIC [2] = target: T1, wild-type ELIC; assay: Two-electrode voltage clamp, whole-cell currents of wild-type ELIC expressed in Xenopus laevis oocytes; assay type: cell-based, Erwinia chrysanthemi; settings: for Activation by amine (whole-cell response): 25 mM amine
Method: as §1, §2, §3
as §4, with “[…] […]” for “For identifying a half maximal inhibitory concentration (IC50) and Hill coefficient of ACh, a concentration of cysteamine corresponding to its EC50 was used in the presence of increasing concentrations of ACh. Peak currents elicited from cysteamine with ACh (I) were normalized to the initial cysteamine peak current in the absence of ACh (Io).”

ELIC F133W = ELIC F133W (Dickeya chrysanthemi, UniProt P0C7B7, F133W); assay: cell-based; assay type: cell-based, Erwinia chrysanthemi; settings: F133W
Method: as §1, §2, §3, §4

ELIC L240A (L9′A) = target: T3, ELIC L240A (L9′A) (Dickeya chrysanthemi, UniProt P0C7B7, L239A); assay: Two-electrode voltage clamp, L240A (L9′A) mutant ELIC expressed in Xenopus laevis oocytes; assay type: cell-based, Erwinia chrysanthemi; settings: L9′A; 30 s applications of ACh 0.5 to 50 mM, then 5 mM cysteamine
T3 construct: expressed in transfected cells; host or cells: Xenopus laevis oocytes injected with cRNA from ELIC-pTLN
Method: as §1, §2, §3
(§5) Individual EC50 and Hill coefficients were averaged for each oocyte to derive a mean ± standard deviation. For identifying a half maximal inhibitory concentration (IC50) and Hill coefficient of ACh, a concentration of cysteamine corresponding to its EC50 was used in the presence of increasing concentrations of ACh. […]

wild-type ELIC [3] = target: T1, wild-type ELIC; assay: Two-electrode voltage clamp, whole-cell currents of wild-type ELIC expressed in Xenopus laevis oocytes; assay type: cell-based, Erwinia chrysanthemi; settings: WT ELIC, ACh inhibition of GABA-activated current
ELIC A75D = target: T4, ELIC A75D (Dickeya chrysanthemi, UniProt P0C7B7, A75D/INS163G); assay: Two-electrode voltage clamp, A75D mutant ELIC expressed in Xenopus laevis oocytes; assay type: cell-based, Erwinia chrysanthemi; settings: A75D
T4 construct: expressed in transfected cells; host or cells: Xenopus laevis oocytes injected with cRNA from ELIC-pTLN

[4] = target: T5, ELIC L240A (L9′A) + A75D/F133W (Dickeya chrysanthemi, UniProt P0C7B7, A75D/F133W/L239A); assay: Two-electrode voltage clamp, L9′A + A75D/F133W triple mutant ELIC expressed in Xenopus laevis oocytes; assay type: cell-based, Erwinia chrysanthemi; settings: L9′A + A75D/F133W; 30 s applications of ACh 0.5 to 50 mM, then 5 mM cysteamine
T5 construct: expressed in transfected cells; host or cells: Xenopus laevis oocytes injected with cRNA
Method: as §1, §2, §3, §5

ELIC I79Y = target: T6, ELIC I79Y (Dickeya chrysanthemi, UniProt P0C7B7, I79Y/INS163G); assay: Two-electrode voltage clamp, I79Y mutant ELIC expressed in Xenopus laevis oocytes; assay type: cell-based, Erwinia chrysanthemi; settings: ACh 0.5 mM to 50 mM, followed by 5 mM cysteamine
T6 construct: expressed in transfected cells; host or cells: Xenopus laevis oocytes injected with cRNA from ELIC-pTLN
Method: as §1, §2, §3
as §4, with “The cysteamine-activated peak current with 25 mM ACh, was normalized to the cysteamine-activated peak current without ACh.” left out

ELIC Y38W [5] = assay: Two-electrode voltage clamp, Y38W mutant ELIC expressed in Xenopus laevis oocytes; assay type: cell-based, Erwinia chrysanthemi; settings: Y38W
Method: as §1, §2, §3, §4

ELIC Y38W [6] = target: ELIC Y38W (Dickeya chrysanthemi, UniProt P0C7B7, Y38W); assay: as above; assay type: cell-based, Erwinia chrysanthemi; settings: Y38W
Method: as §1, §2, §3, §4

[7] = ACh inhibition, cysteamine at its EC50
[8] = cysteamine at EC10, EC20, EC50, EC90
[9] = ACh 0.5 mM to 50 mM, followed by 5 mM cysteamine
[10] = WT, 25 mM ligand, 40 s pulse, cysteamine at its EC50

**Q.** Which results are given for `CC(=O)OCCN(C)C` [DMAEA, 2-dimethylaminoethyl acetate]?
**A.** Action on ELIC (wild-type ELIC [1]): able to activate ELIC; Effectiveness of activation compared with wild-type ELIC (ELIC A75D/F133W; 25 mM): much less effective than observed with wild-type ELIC; Activation by amine (whole-cell response) (ELIC A75D/F133W): activate; Activation by amine (whole-cell response) (wild-type ELIC [2]; WT): activate

**Q.** With `CN(C)C` [trimethylamine, Trimethylamine] as the compound, how does the “Activation by amine (whole-cell response)” value (“Activation by amine” below) (ELIC A75D/F133W) read?
**A.** The value was “activate”.

**Q.** And the “Activation by amine” value (wild-type ELIC [2]; WT)?
**A.** The value was “activate”.

**Q.** Which results are given for `CC(=O)OCC[N+](C)(C)C` [ACh, acetylcholine]?
**A.** Action on ELIC (wild-type ELIC [1]): competitive antagonist; Inhibition Hill coefficient (ELIC F133W; [7]): –1.1 ± 0.1; Effect of 25 mM ACh on cysteamine-activated currents (ELIC F133W; [8]): increasing the concentration of cysteamine reduced the degree of inhibition; Peak current on application of ligand alone (ELIC F133W; [9]): None of the single mutants, nor wild-type ELIC, produced any peak current; Current on application of ligand alone (ELIC L240A (L9′A)): Neither mutant produced observable current; also recorded: No ACh-induced currents were observed; Inhibition Hill coefficient (wild-type ELIC [3]): –1.0 ± 0.3; Activation by amine (whole-cell response) (ELIC A75D/F133W): fail to activate; Effect of co-applied ligand on cysteamine-activated current (ELIC A75D/F133W): same small degree of potentiation; Potentiation of the cysteamine response on co-application (ELIC A75D/F133W): potentiation; Effect of high ACh concentrations on cysteamine peak current (ELIC A75D/F133W; ACh 50–100 mM, cysteamine at EC50): appeared to potentiate; ACh inhibition of the cysteamine response (ELIC A75D/F133W; cysteamine fixed at EC50 (6.9 mM), ACh up to 100 mM): failed to inhibit; also recorded: no inhibition by ACh is observed; Increase in ACh IC50 relative to wild-type (ELIC A75D): 7 fold; Inhibition Hill coefficient (ELIC A75D; [7]): –0.7 ± 0.1; Effect of 25 mM ACh on cysteamine-activated currents (ELIC A75D; [8]): increasing the concentration of cysteamine reduced the degree of inhibition; Peak current on application of ligand alone (ELIC A75D; [9]): None of the single mutants, nor wild-type ELIC, produced any peak current; Inhibition Hill coefficient (wild-type ELIC [2]; WT ELIC, ACh inhibition of cysteamine-activated current): –1.1 ± 0.1; Activation by amine (whole-cell response) (wild-type ELIC [2]; WT): fail to activate; Effect of co-applied ligand on cysteamine-activated current (wild-type ELIC [2]; [10]): completely inhibited; Effect of 25 mM ACh on cysteamine-activated currents (wild-type ELIC [2]; WT, cysteamine at EC10, EC20, EC50, EC90): nearly fully inhibited; Peak current on application of ligand alone (wild-type ELIC [2]; WT, ACh 0.5 mM to 50 mM, followed by 5 mM cysteamine): None of the single mutants, nor wild-type ELIC, produced any peak current; Current on application of ligand alone [4]: Neither mutant produced observable current; also recorded: No ACh-induced currents were observed; Peak current on application of ligand alone (ELIC I79Y): None of the single mutants, nor wild-type ELIC, produced any peak current; Decrease in ACh IC50 relative to wild-type (ELIC Y38W [5]): 3 fold; Inhibition Hill coefficient (ELIC Y38W [6]; [7]): –1.4 ± 0.1; Effect of 25 mM ACh on cysteamine-activated currents (ELIC Y38W [6]; [8]): nearly fully inhibited; Peak current on application of ligand alone (ELIC Y38W [6]; [9]): None of the single mutants, nor wild-type ELIC, produced any peak current

**Q.** With `[Cl-].[Na+]` [NaCl, sodium chloride] as the compound, how does the “Response when applied by themselves” value (ELIC A75D/F133W) read?
**A.** The value was “negligible response”.

**Q.** What about the “Potentiation of the cysteamine response on co-application” value (ELIC A75D/F133W) of the same compound?
**A.** The value was “small, but reproducible, degree of potentiation”.

**Q.** Which “Action on ELIC” value (wild-type ELIC [1]) does the source give for `CCCN` [propylamine] here?
**A.** Its value is “agonists”.

**Q.** Which “Action on ELIC” value (wild-type ELIC [1]) does the source give for `NCCCC(=O)O` [GABA, γ-aminobutyric acid] here?
**A.** The value was “agonist”.

**Q.** What about the “Activation by amine” value (ELIC A75D/F133W) of the same compound?
**A.** Its value is “fails to elicit a response”.

**Q.** What about the “Effect of co-applied ligand on cysteamine-activated current” value (ELIC A75D/F133W) of the same compound?
**A.** The value was “same small degree of potentiation”.

**Q.** What about the “Activation Hill coefficient” value (wild-type ELIC [2]; WT ELIC, agonist activation) of the same compound?
**A.** The value was 4.0 ± 0.7.

**Q.** And the “Increase of cysteamine-activated current by co-applied ligand” value (wild-type ELIC [2]; [10])?
**A.** The value was “roughly 2 fold”.

**Q.** What about the “Macroscopic activation/deactivation kinetics of agonist-activated currents” value (wild-type ELIC [2]; WT, compared with cysteamine, agonists at their EC50) of the same compound?
**A.** The value was “slower macroscopic activation/deactivation kinetics”.

**Q.** What does the source list for `C[N+](C)(C)C` [tetramethylammonium, Tetramethylammonium]?
**A.** Activation by amine (whole-cell response) (ELIC A75D/F133W): fail to activate; Activation by amine (whole-cell response) (wild-type ELIC [2]; WT): fail to activate

**Q.** With `OC[C@H]1O[C@@](CO)(O[C@H]2O[C@H](CO)[C@@H](O)[C@H](O)[C@H]2O)[C@@H](O)[C@@H]1O` [sucrose] as the compound, how does the “Response when applied by themselves” value (ELIC A75D/F133W) read?
**A.** The value was “negligible response”.

**Q.** And the “Potentiation of the cysteamine response on co-application” value (ELIC A75D/F133W)?
**A.** The value was “did not potentiate”.
